Assay results: article PMC5390258, “CMD-05, a novel promising clinical anti-diabetic drug candidate, in vivo and vitro studies” (Scientific Reports, 2017)
Read-outs that look alike come from different tables or passages of the source.

Legend:
recombinant human DPP-IV = target: T1, recombinant human DPP-IV (Homo sapiens, UniProt P27487); assay: Recombinant human DPP-IV activity assay; type: biochemical; settings: Gly-Pro-MCA substrate, read-out: IC50 of DPP-IV inhibition
T1 construct: purchased R&D systems, USA
Protocol: DPP-IV inhibition assay was carried out using either 5 ng purified recombinant human DPP-IV (rhDPP-IV) (R&D systems, USA). Recombinant DPP-IV was mixed with ddH2O in an assay buffer (25 mM Tris-HCl, 0.2 M NaCl, 0.1% BSA, pH 7.3). […] The vehicle comprised 1% DMSO in place of test compounds. […] The fluorescence intensity of AMC corresponded to DPP-IV activity.

[1] = system: model rats (HFD/low-dose STZ, T2DM); assay: Oral glucose tolerance test (OGTT) in HFD/STZ T2DM model rats; type: in vivo, rat; settings: for percentage reduction of blood glucose levels in OGTT: model rats
Protocol: (§1) To establish model of T2DM, male rats (80–100 g, 9-week-old)[49] were fed high fat diet (HFD) (20% sugar, 10% lard, 10% egg yolk and 60% basal feed) after a week of normal diet. After 4 weeks, rats were injected once with low-dose streptozotocin (Solarbio, China) (STZ, 30 mg/kg i.p) to induce partial insulin deficiency, and then continuously fed HFD for 4 weeks after injection of STZ. Then the model rats were oral administrated drugs for 30 days. The body weights were recorded once a week.
On the 1st day, 19th days and 29th days of treatment, oral glucose tolerance tests for model rats were carried out. […] The blood glucose levels were tested using Johnson one touch Ultra Test Strips on Johnson Performa blood glucose meter.

plasma DPP-IV = target: T2, plasma DPP-IV (Rattus norvegicus, UniProt P14740); assay: Plasma DPP-IV activity determination in model rats; type: in vivo
T2 construct: from tissue; host or cells: plasma of Sprague-Dawley rats

GLP-1 = assay: Plasma GLP-1 levels in model rats (ELISA); type: in vivo, rat; settings: 4.5 mg/kg, glucose load and random plasma
Protocol: as §1
(§2) Oral glucose load, fasted and random blood samples were collected from rats on the 28th days, the 29th days and the last of the treatment of drugs, respectively. Plasma levels of insulin and GLP-1 were measured by ELISA kits (YuanYe, China) according to the manufacturer’s recommendation. The levels of HbA1c, Triglycerides (TG), total cholesterol (TC) and low density lipoprotein cholesterol (LDL-C) in blood samples were measured by commercial assay kits (JianCheng, Nanjing, China) according to the manufacturer’s directions.

insulin = assay: Plasma insulin levels in model rats (ELISA); type: in vivo, rat; settings: 1.5 and 4.5 mg/kg, fasted, glucose load and random plasma
Protocol: as §1, §2

HbA1c = HbA1c level in blood of model rats; type: in vivo, rat; settings: 30 days
Protocol: as §1, §2

[2] = Body weight of model rats; type: in vivo, rat; settings: 30 days treatment
Protocol: as §1

INS-1 cells = assay: Apoptosis of INS-1 cells induced by STZ (Annexin V/PI flow cytometry); type: cell-based, rat; settings: STZ-induced, 1, 10, 100 μM, 36 h, concentration dependent
Protocol: The INS cells were seeded into 6-well culture plates at 3 × 10^4 cells per ml and incubated at 37 °C for 24 h. […] After incubated for 36 h, apoptosis was assessed by flow cytometry using the Annexin V-FITC/ propidium iodide (Annexin V/PI) apoptosis detection kit according to the manufacturer’s protocol.

Pharmacokinetics in rats = type: in vivo, rat
Protocol: Male SD rats (200–220 g) were fasted overnight to administration of CMD-05 intravenously via tail vein (50 mg/kg, n = 4) or by oral gavage (50 mg/kg, n = 4). Blood samples of 0.3 ml were collected from the orbital venous at 1 min, 3 min, 5 min, 15 min, 30 min, 60 min, 120 min, 240 min, 480 min, 720 min after tail vein injection of CMD-05 and at 15 min, 30 min, 45 min, 60 min, 120 min, 240 min, 480 min, 720 min after oral of CMD-05. Plasma was obtained after centrifugation. The concentrations of CMD-05 in plasma were determined by HPLC method. The pharmacokinetic parameters of CMD-05 in the rats were analyzed by DAS2 software.

HT22 cells = assay: Cytotoxicity in HT22 cells (CCK-8); type: cell-based; settings: 3 × 10^−6 to 3 × 10^−5 M, 12 h
Protocol: The toxicities of CMD-05 on HT22, 293 and […] cell lines was assessed using Cell Counting Kit-8 (CCK-8) (Biosharp, China). Briefly, the cells were plated on 96-well plates. […] The absorbance at 450 nm was measured using a microplate spectrophotometer.

[3] = fasted plasma, read-out: plasma DPP-IV inhibition rate
[4] = glucose load plasma, read-out: plasma DPP-IV inhibition
[5] = random plasma, read-out: plasma DPP-IV inhibition

T2 sequence (P14740 whole entry): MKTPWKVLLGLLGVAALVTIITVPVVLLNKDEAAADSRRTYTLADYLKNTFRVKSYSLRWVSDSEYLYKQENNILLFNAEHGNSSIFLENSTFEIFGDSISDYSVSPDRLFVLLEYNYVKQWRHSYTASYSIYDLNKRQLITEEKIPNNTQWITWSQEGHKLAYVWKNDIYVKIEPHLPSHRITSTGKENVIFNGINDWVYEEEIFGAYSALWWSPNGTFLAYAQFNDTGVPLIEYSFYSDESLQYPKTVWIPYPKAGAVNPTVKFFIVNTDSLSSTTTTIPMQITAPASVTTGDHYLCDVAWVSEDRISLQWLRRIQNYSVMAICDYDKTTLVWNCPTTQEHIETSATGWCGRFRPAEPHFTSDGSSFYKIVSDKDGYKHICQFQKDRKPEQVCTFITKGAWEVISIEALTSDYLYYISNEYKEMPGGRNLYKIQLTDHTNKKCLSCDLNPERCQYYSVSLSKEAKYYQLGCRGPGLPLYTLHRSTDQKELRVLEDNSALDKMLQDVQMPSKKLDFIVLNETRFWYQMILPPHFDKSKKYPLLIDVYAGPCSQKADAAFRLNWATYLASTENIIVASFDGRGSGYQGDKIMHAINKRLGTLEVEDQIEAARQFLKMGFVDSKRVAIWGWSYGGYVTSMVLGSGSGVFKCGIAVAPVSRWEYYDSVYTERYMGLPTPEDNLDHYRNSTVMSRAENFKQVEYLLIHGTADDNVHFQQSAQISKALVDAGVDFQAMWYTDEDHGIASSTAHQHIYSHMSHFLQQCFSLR
T1 sequence (P27487 whole entry): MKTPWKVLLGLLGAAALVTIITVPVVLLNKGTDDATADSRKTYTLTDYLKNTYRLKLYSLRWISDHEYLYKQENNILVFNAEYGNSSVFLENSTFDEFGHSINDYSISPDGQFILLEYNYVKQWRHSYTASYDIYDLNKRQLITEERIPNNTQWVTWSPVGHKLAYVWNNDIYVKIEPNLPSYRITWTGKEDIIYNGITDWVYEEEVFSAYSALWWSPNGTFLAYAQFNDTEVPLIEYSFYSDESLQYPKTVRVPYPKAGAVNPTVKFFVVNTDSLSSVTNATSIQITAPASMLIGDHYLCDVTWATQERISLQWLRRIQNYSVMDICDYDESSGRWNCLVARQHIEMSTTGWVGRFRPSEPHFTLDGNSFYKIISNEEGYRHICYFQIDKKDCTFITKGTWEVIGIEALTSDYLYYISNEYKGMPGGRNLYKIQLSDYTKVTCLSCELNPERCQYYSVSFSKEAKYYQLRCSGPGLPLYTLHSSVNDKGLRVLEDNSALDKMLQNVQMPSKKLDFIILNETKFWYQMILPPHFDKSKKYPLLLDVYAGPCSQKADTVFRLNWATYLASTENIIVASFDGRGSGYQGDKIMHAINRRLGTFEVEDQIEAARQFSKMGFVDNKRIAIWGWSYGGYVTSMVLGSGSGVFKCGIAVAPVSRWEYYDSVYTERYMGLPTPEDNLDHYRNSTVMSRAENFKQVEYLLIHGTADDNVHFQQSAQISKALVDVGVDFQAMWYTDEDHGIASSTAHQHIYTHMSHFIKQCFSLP

In the case of `N#C[C@@H]1CCCN1C(=O)CN(C(=O)CCCCCl)C12CC3CC(CC(O)(C3)C1)C2` [CMD-05], the IC50 (recombinant human DPP-IV) is reported as 12 nM, the “percentage reduction of blood glucose levels in OGTT” value (“percentage reduction” below) ([1]; 1.5 mg/kg oral, 1st day) is reported as 8.0% and the “percentage reduction” value ([1]; 1.5 mg/kg oral, 19th day) is reported as 9.22%. For the same compound, the “percentage reduction” value ([1]; 1.5 mg/kg oral, 29th day) was 17.8%, the “percentage reduction” value ([1]; 4.5 mg/kg oral, 1st day) was 9.7% and the “percentage reduction” value ([1]; 4.5 mg/kg oral, 19th day) was 12.2%. The “percentage reduction” value ([1]; 4.5 mg/kg oral, 29th day) was 21.9%, the “AUC (area under the blood glucose curve) in OGTT” value ([1]; 1st, 19th and 29th day, vs model group) was “significant decrease” and the inhibition at 0.5 mg/kg (plasma DPP-IV; [3]) was about 20%. It also gave an inhibition at 1.5 mg/kg (plasma DPP-IV; [3]) of about 30%, an inhibition at 4.5 mg/kg (plasma DPP-IV; [3]) of about 50% and an inhibition at 0.5 mg/kg (plasma DPP-IV; [4]) of about 10%. The inhibition at 1.5 mg/kg (plasma DPP-IV; [4]) was about 20%, the inhibition at 4.5 mg/kg (plasma DPP-IV; [4]) was about 70% and the inhibition at 0.5 mg/kg (plasma DPP-IV; [5]) was about 20%. For the same compound, the inhibition at 1.5 mg/kg (plasma DPP-IV; [5]) was about 30%, the inhibition at 4.5 mg/kg (plasma DPP-IV; [5]) was about 55% and the “levels of GLP-1 in plasma” value (GLP-1) was “significantly increased”. The “insulin levels in plasma” value (insulin) was “significantly increased”, the “reduction of the level of HbA1c” value (HbA1c; 1.5 mg/kg) was 1.0% and the “reduction of the level of HbA1c” value (HbA1c; 4.5 mg/kg) was 2.2%. The “body weights vs model group” value [2] was “no significant difference”, the “apoptosis of INS-1 cells” value (INS-1 cells) was “reduce of apoptosis” and the “effect of food on pharmacokinetics” value (Pharmacokinetics in rats; healthy rats) was “not affected by food”. It also gave a half-life (Pharmacokinetics in rats; male, SD, rat, plasma, oral, 50 mg/kg, rats, 50 mg/kg, read-out: half-life) of 4.8 h, a Tmax (Pharmacokinetics in rats; male, SD, rat, plasma, po, 50 mg/kg, rats, single oral 50 mg/kg, read-out: time to peak plasma concentration (converted)) of 0.5 h and a bioavailability (Pharmacokinetics in rats; male, SD, rat, plasma, rats, 50 mg/kg oral vs intravenous, read-out: absolute bioavailability) of 84.5%. For the same compound, the half-life (Pharmacokinetics in rats; rats, 50 mg/kg) was 4.798 ± 0.437 h, the “time to peak plasma concentration” value (Pharmacokinetics in rats; rats, single oral 50 mg/kg, 50 mg/kg) was 30 to 45 min and the “cytotoxicity (cell viability)” value (HT22 cells) was “did not induce significant cytotoxicity”.
